# Source: US4855290A (priority 1985, dated 1989)
# “And” between values parts separate entries of the source, which are not always exact repeats. Equal values may be shown once. “Also recorded” adds a separate entry of the source. Read-outs that look alike come from different tables or passages of the source.
# How the values were obtained:
# [1] = Acute oral toxicity of AF102B in rats; format: in vivo, rats (Charles River CD strain)
# Method: The test material was prepared at various concentrations in saline and was administered at a constant volume-sosage of 5 ml./kg. Dosages were selected according to the availability of the test material. Mortality and signs of reaction to treatment were recorded during a 14-day period. Early decedents and surviving animals were subjected to necropsy on Day 15.
# [2] = Acute toxicity in mice, ip; format: in vivo; settings: 80 mg./kg.
# [3] = format: in vivo, mice; settings: for dose level for antinociceptive activity: mouse, in vivo
# [4] = biological target: central muscarinic receptors (M1) (Rattus norvegicus, UniProt P08482); assay: biochemical; format: binding; set-up: IC50^1 :IC50^2: unit not given beside the values
# [5] = biological target: central muscarinic receptors (M1 and M2); format: binding, rat
# Guinea-pig ileum [6] = assay: Guinea-pig ileum induced contractions
# Text: Guinea-pig ileum induced contractions
# *This dose is the IC50 for inhibiting acetylcholineinduced
# contractions of the ileum.
# [7] = set-up: species or system Male Sprague-Dawley rats; settings: rat, in vivo
# [8] = Morris Swimming Maze in AF64A- and CSF-injected rats; format: in vivo, male Sprague Dawley rats; settings: ip
# Method: 38 male Sprague Dawley rats (raised by Charles River) 5-6 months old with an average weight of 500 g. were used. The rats were housed in groups of 5 and were given free access to food and water. Testing was carried out in a round white metal tub 1.4 m. diameter and 0.4 m. deep. The tub was filled with water, made opaque by milk powder to the level of 18 cm. A platform of 12 cm. diameter and at a height of 16 cm. was placed in the tub 2 cm. below water level. The platform was covered with gauze to prevent the animal from slipping back into the water after reaching the platform.
# Prior to testing, the rat was placed on the platform for 120 secs., placed gently into the water, facing the wall of the pool, at one of four starting locations (north, south, east or west) around the pool's perimeter. Within each block of four trials, each rat was started at each of the four starting locations, with the sequence of starting locations randomly selected. Testing was carried out on 2 consecutive days with each rat submitted daily to eight trials. During trials 1-12 the platform was located in the center of the south-east quadrant and during trials 13-16 the platform was transferred to the center of the north-west quadrant. If in a particular trial the rat found the platform, it was permitted to remain on it for 60 secs. before starting the next trial. […] The latency to find the platform was measured.
# For drug testing, rats were injected with AF64A or CSF (3 nmole/2 ul/side) as described in Experiment 2, above. The rats were subjected first to a step-through learning procedure (see Experiment 1, above) and were 3-3.5 months after injection when tested in the water maze. The rats were divided into 4 groups; 18 CSF-injected rats were treated either with physostigmine (0.1 mg./kg. ip) (10 rats) or with saline (8 rats). 20 AF64A-injected rats were divided similarly. The rats were injected with physostigmine immediately before testing on each day.
# Forty male Sprague-Dawley rats (obtained from Charles River Breeding Laboratories U.K.), 5-6 months old, weighing 450-580 g. during the experiment served as subjects. Rats were housed in groups of 5 and were given free access to food and water. 2.5-3.5 months before behavioral testing, rats were injected with AF64A (3 nmole/2 ul/side) (20 rats-group 1) or CSF (20 rats-group 2) as described in the surgery procedure.
# Each of the injected groups was randomly subdivided into two equal size treatment groups.
# [9] = set-up: species or system Sprague Dawley rats; settings: rat, in vivo, ip
# [10] = Tremor induced by AF102B, mice; format: in vivo; settings: ip
# Text: (§1) rats; these effects are observed around the toxic doses of the compound
# [11] = Tremor induced by AF102B, rats; format: in vivo
# Text: as §1
# [12] = mice
# [13] = rats, ip
# Guinea-pig ileum [14] = assay: Guinea-pig ileum induced contractions; settings: ileum contraction
# in vivo [15] = settings: mouse, po
# in vivo [16] = settings: mouse, iv
# in vivo [17] = settings: rat, ip
# [18] = Hypothermia-inducing activity in rats
# [19] = system: Salmonella typhimurium, strains TA-15365, TA-100, TA1538, TA-98 and TA-1537; assay: Mutagenic activity (pour-plate assays)
# Chain of central muscarinic receptors (M1) (P08482 whole entry): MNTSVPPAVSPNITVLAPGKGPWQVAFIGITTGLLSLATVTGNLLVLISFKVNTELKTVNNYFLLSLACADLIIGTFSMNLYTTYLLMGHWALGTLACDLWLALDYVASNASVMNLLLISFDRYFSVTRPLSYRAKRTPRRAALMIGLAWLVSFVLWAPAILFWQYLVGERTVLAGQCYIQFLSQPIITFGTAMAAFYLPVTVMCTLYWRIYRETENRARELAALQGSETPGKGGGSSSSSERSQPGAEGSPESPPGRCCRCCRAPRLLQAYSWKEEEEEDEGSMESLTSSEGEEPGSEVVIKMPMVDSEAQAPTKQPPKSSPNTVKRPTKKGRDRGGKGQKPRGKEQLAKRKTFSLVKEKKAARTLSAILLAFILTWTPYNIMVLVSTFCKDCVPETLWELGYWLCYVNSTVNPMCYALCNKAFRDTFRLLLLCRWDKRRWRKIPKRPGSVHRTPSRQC
compound,measurement,setting,value
C[C@H]1O[C@]2(CS1)CN1CCC2CC1 (relative stereo) [AF102B],deaths,[1]; oral,"deaths occurred at all four dose-levels studied, within three hours 30 minutes after dosing"
same,necropsy observations,[1]; oral,a single case of haemorrhagic contents and occasional congested gastric mucosa was observed; also recorded: Necropsy of surviving animals did not reveal any abnormalities
same,principal signs of reaction to treatment,[1]; oral,"clonic convulsions, tremor, salivation, urogenital staining, diarrhoea and pigmented orbital secretion"
same,recovery and bodyweight of surviving animals,[1]; oral,all clinical signs of reaction to treatment were resolved by twenty four hours after dosing; also recorded: Surviving animals generally made expected bodyweight gains
same,LD50 at 336 h,"[1]; rat, in vivo, po",> 156 mg/kg
same,death of mice,[2],All mice died
same,antinociceptive effect at highest non-lethal doses,"[3]; mice, 60 mg./kg. p.o. and 40 mg./kg. i.p., vs codeine phosphate and oxotremorine",not fully developed at 60 mg./kg. p.o. and 40 mg./kg. i.p; also recorded: remained obviously weaker than those of codeine phosphate and oxotremorine
same,dose level for antinociceptive activity,[3]; ip,> 10 mg/kg
same,dose level for antinociceptive activity,[3]; po,greater than 20 mg./kg.
same,onset of action following per os administration,"[3]; po, analgesia, hypothermia and lethal dose level tests",10 to 15 min
same,EC50,[4],0.4 µM
same,IC50,[4],0.4 µM
same,IC50^1 :IC50^2,[4]; PNZ:QNB displacement ratio,0.04
same,IC50,[5]; read-out: IC50^2 for displacement of [^3 H]-QNB,10 µM
same,EC50,"[5]; summary table, read-out: EC50, [^3 H]--QNB-binding",10 µM
same,muscarinic agonist activity (TABLES 1 and 2),Guinea-pig ileum [6]; binding and ileum,potent muscarinic agonist
same,Type of activity,Guinea-pig ileum [6]; guinea-pig ileum,agonist
same,duration of action,[7],very long beneficial effect; also recorded: long duration of action
same,retention latency during extinction+latent extinction,[7],No significant differences
same,reversal of AF64A-induced memory impairments in passive avoidance,[7],could be reversed; also recorded: reverses memory impairments in AF64A-treated rats
same,Initial latency,[7]; ip,16.71 ± 4.77 s and 11.86 ± 1.23 s and 19.71 ± 5.39 s
same,Initial-test latency,[7]; ip,18.40 ± 3.74 s and 15.30 ± 2.83 s
same,Retention-test latency,[7]; ip,330.57 ± 75.55 s and 348.14 s and 551.71 s and 514.10 ± 38.21 s and 447.60 ± 58.09 s
same,retention latency during extinction,[7]; ip,"significantly longer, F(1,36)=31.45, p<0.01; also recorded: significantly improved; also recorded: increased from the first to the fourth trial and then decreased"
same,retention-test differences between doses,[7]; ip,no significant differences were found during the 24 hr. retention-test between the different doses of AF102B
same,Retention-test latency,[7]; po,524.55 ± 45.60 s and 600 s
same,retention of passive avoidance (statistics),[7]; po,"significantly longer [F(1,35)=28.46; p<0.001]; also recorded: significantly improved; also recorded: no significant difference between the AF102B-treated-CSF-injected group and the saline-treated-CSF-injected group; also recorded: significantly longer [F(1,18)=65.71; p<0.001]; also recorded: that of the CSF-injected group did not significantly change"
same,effect in Morris Swimming Maze,"[8]; AF102B 1 mg./kg., physostigmine 0.1 mg./kg.",counteracted; also recorded: reverses memory impairments in AF64A-treated rats; also recorded: definitely improved the memory deficits induced by AF64A; also recorded: significant decrease in escape latency
same,"effective dose, Morris Swimming Maze",[8]; AF64A rats,1 mg/kg
same,effect in 8-Arm Radial Maze,[9],"counteracted; also recorded: reverses memory impairments in AF64A-treated rats; also recorded: improves AF64A-induced memory impairments; also recorded: significant (p<0.001, F=17.5) decrease in the mean number of errors; also recorded: improved performance only when rats were previously injected icv with AF64A; also recorded: memory impairment could be reversed"
same,"effective dose, 8-Arm Radial Maze",[9],5 mg/kg
same,tremor-inducing dose,[10],60 to 80 mg/kg
same,tremor-inducing dose,[11]; ip,> 78 mg/kg
same,tremor-inducing dose,[11]; po,> 100 mg/kg
same,Mortality,"mice, 64 mg./kg. per os",0/5
same,Mortality,"mice, 71 mg./kg. per os",0/5
same,Mortality,"mice, 80 mg./kg. per os",2/5
same,Mortality,"mice, 90 mg./kg. per os",2/5
same,Mortality,"mice, 101 mg./kg. per os",3/5
same,Mortality,"mice, 113 mg./kg. per os",4/5
same,absorption by the enteric route,"mice, inferred from i.v./oral LD50 ratio","efficient, rapid and apparently unaltered absorption"
same,LD50 (95% C.I.),"mice, oral",92(74-116) mg./kg.
same,Signs in reaction to treatment,"mouse, in vivo",slightly enhanced intensity
same,effects considered characteristic of parasympatho- or cholinomimetic activity,"mouse, in vivo",none of the test animals exhibited effects considered characteristic of parasympatho- or cholinomimetic activity
same,Mortality,[12]; 31 mg./kg. i.v.,3/6
same,Mortality,[12]; 33 mg./kg. i.v.,1/6
same,Mortality,[12]; 35 mg./kg. i.v.,5/6
same,Mortality,[12]; 37 mg./kg. i.v.,6/6
same,Mortality,[12]; 39 mg./kg. i.v.,6/6
same,LD50 (95% C.I.),[12]; intravenous,33(31-35) mg./kg.
same,principal signs of reaction to treatment,[13],"spastic and tonic convulsions, tremors, tachypnoea and dyspnoea, decreased motor activity, slight to very strong salivation and urination"
same,deaths,[13]; 20.0-187.0 mg./kg.,"deaths occurred at the three highest dose levels (61, 107, 187 mg./kg.), within twenty minutes after dosing"
same,slope,[13]; acute toxicity curve,83 °
same,LD50,[13]; 20160 min,78 mg/kg
same,EC50,Guinea-pig ileum [14],4 µM
same,LD50,in vivo [15],92 mg/kg
same,LD50,in vivo [16],33 mg/kg
same,LD50 at 336 h,"in vivo [17]; LD50 (95% C.L.), rats",77.6 mg/kg
same,LD50 at 336 h,"in vivo [17]; LD50, rats",77.6 mg/kg
same,cholinomimetic manifestation,"[18]; AF102B at 80 mg./kg. p.o. and 60 mg./kg. i.p., oxotremorine 3.2 mg./kg. p.o. or 1.2 mg./kg. i.p.",Slight diarrhea was the single cholinomimetic manifestation
same,dose level for hypothermia inducing activity,[18]; i.p.,> 15 mg/kg
same,dose level for hypothermia inducing activity,[18]; p.o.,greater than 40 mg./kg.
same,inhibition of growth,[19]; 1000 ug. per plate,No inhibition of growth
same,mutagenic activity (reversion to prototrophy),"[19]; five strains, presence or absence of S-9 mix",No increases in reversion to prototrophy; also recorded: devoid of mutagenic activity; also recorded: not mutagenic up to high concentrations
